# Key:
# hA1AR = target: T1, hA1AR (Homo sapiens, UniProt P30542); assay: Radioligand binding in membranes of CHO cells expressing hA1AR, [3H]N6-R-phenylisopropyladenosine; conditions: read-out: A1AR % inhibition or Ki; for Ki: (h)
# T1 construct: expressed in transfected cells; host or cells: CHO
# T1 sequence (P30542 1-326): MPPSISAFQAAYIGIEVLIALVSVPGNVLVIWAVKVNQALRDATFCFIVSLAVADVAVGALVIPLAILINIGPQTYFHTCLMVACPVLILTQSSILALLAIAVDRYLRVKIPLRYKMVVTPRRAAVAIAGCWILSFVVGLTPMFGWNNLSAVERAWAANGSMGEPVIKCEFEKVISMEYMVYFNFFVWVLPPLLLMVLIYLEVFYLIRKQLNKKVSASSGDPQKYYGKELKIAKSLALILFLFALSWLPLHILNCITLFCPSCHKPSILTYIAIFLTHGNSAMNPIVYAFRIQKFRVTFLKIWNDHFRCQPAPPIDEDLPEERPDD
# mA1AR = target: T2, mA1AR (Mus musculus, UniProt Q60612); assay: Adenosine receptor binding, mA1AR; conditions: (m); Ki; read-out: A1AR % inhibition or Ki (converted)
# T2 sequence (Q60612 1-326): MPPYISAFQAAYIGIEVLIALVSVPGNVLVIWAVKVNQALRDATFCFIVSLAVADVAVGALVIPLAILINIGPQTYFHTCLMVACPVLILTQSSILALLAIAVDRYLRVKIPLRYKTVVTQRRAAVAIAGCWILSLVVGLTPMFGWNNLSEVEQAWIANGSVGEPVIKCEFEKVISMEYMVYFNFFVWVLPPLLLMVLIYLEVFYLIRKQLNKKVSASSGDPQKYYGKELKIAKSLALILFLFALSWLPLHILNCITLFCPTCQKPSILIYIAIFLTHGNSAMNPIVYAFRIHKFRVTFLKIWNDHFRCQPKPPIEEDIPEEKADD
# hA2AAR = target: T3, hA2AAR (Homo sapiens, UniProt P29274); assay: Radioligand binding in membranes of HEK293 cells expressing hA2AAR; conditions: read-out: A2AAR % inhibition
# T3 construct: expressed in transfected cells; host or cells: HEK293
# T3 sequence (P29274 whole entry): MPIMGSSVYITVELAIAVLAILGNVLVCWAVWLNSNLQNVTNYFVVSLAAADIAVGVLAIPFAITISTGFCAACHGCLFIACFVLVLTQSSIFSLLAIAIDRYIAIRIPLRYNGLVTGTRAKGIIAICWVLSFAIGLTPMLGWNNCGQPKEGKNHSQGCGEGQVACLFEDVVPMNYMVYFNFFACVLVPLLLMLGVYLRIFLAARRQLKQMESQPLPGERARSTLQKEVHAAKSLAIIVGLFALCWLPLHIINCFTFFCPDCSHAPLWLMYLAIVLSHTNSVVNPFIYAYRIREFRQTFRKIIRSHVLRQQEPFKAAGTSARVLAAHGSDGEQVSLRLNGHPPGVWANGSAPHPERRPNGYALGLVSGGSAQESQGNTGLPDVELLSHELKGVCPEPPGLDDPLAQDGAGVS
# mA2AAR = mA2AAR (Mus musculus, UniProt Q60613); assay: Adenosine receptor binding, mA2AAR; conditions: read-out: A2AAR % inhibition (converted)
# Chain of mA2AAR (Q60613 whole entry): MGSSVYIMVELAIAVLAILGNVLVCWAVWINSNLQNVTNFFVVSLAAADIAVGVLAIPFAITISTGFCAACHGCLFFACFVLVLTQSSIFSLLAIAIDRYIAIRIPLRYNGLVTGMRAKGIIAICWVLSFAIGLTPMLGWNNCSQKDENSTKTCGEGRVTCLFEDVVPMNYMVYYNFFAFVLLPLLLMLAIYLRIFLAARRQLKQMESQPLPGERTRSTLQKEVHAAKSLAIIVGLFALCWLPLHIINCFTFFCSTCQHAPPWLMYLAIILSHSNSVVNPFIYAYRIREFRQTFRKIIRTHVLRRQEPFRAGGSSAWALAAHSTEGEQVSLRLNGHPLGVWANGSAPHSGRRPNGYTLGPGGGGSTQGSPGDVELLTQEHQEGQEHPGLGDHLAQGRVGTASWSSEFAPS
# hA3AR = target: T4, hA3AR (Homo sapiens, UniProt P0DMS8); assay: Radioligand binding in membranes of CHO cells expressing hA3AR; conditions: read-out: A3AR % inhibition or Ki; for Ki: (h)
# T4 construct: expressed in transfected cells; host or cells: CHO
# T4 sequence (P0DMS8 1-318): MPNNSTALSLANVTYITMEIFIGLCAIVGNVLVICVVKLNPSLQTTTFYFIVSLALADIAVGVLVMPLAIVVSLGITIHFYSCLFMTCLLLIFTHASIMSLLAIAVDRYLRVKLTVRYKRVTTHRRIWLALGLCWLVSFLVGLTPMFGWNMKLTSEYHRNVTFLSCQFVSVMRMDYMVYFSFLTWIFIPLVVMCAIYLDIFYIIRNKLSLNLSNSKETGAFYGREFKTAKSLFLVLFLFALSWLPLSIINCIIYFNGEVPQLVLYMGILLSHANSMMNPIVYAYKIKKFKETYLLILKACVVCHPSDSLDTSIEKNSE
# mA3AR = target: T5, mA3AR (Mus musculus, UniProt Q61618); assay: Adenosine receptor binding, mA3AR; conditions: for Ki: (m), read-out: A3AR % inhibition or Ki (converted)
# T5 sequence (Q61618 1-319): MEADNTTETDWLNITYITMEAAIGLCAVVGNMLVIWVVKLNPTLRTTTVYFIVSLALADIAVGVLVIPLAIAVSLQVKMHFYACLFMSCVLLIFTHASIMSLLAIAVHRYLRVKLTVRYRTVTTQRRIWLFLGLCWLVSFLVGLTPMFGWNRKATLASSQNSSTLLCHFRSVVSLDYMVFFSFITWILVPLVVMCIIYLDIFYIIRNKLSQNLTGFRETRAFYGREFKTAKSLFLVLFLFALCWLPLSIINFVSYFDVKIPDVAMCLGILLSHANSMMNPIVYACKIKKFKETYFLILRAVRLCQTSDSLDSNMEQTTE
# [1] = target: dopamine transporter (DAT) (Homo sapiens, UniProt Q01959); assay: Off-target interaction determined by the PDSP; assay type: binding; conditions: read-out: Off-target, receptor (h, unless noted) (Ki, μM): DAT
# Chain of dopamine transporter (DAT) (Q01959 whole entry): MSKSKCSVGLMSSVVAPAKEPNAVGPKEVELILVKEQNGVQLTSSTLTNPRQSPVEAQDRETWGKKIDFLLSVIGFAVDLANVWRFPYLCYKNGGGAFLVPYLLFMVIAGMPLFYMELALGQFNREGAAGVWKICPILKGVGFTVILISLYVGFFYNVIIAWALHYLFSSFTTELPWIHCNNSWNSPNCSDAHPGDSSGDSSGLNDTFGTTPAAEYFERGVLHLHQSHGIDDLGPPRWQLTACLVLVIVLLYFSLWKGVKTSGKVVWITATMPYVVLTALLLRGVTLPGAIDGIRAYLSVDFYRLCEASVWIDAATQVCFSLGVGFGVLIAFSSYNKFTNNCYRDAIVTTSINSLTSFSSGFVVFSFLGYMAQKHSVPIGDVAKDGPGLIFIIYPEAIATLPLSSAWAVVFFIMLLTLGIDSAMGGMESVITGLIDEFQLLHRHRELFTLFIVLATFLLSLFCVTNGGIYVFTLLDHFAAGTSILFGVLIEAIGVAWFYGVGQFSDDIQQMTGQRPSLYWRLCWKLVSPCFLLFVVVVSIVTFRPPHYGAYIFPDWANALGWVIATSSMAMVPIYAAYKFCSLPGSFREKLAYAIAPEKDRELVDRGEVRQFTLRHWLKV
# [2] = target: TSPO (translocator protein) (UniProt P30536); assay: Off-target interaction determined by the PDSP; assay type: binding, human; conditions: read-out: Off-target, receptor (h, unless noted) (Ki, μM): TSPO
# serotonin receptor 5HT2C = target: T6, serotonin receptor 5HT2C (Homo sapiens, UniProt P28335); assay: Off-target interaction determined by the PDSP; assay type: binding; conditions: read-out: Off-target, receptor (h, unless noted) (Ki, μM): 5HT2C
# T6 sequence (P28335 33-458): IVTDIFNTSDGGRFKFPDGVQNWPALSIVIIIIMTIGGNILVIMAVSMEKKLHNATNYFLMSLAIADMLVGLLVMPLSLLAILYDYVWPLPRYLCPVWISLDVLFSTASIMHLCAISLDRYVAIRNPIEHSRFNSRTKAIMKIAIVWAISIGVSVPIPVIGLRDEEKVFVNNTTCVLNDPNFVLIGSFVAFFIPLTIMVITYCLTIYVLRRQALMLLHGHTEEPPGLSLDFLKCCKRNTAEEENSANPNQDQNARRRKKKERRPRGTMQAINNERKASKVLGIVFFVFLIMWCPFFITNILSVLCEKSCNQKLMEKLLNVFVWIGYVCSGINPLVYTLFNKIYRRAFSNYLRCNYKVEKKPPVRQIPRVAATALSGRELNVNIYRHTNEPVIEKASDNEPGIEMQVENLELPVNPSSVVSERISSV
# muscarinic receptor M5 = muscarinic receptor M5 (Homo sapiens, UniProt P08912); assay: Off-target interaction determined by the PDSP; assay type: binding; conditions: read-out: Off-target, receptor (h, unless noted) (Ki, μM): M5
# Chain of muscarinic receptor M5 (P08912 whole entry): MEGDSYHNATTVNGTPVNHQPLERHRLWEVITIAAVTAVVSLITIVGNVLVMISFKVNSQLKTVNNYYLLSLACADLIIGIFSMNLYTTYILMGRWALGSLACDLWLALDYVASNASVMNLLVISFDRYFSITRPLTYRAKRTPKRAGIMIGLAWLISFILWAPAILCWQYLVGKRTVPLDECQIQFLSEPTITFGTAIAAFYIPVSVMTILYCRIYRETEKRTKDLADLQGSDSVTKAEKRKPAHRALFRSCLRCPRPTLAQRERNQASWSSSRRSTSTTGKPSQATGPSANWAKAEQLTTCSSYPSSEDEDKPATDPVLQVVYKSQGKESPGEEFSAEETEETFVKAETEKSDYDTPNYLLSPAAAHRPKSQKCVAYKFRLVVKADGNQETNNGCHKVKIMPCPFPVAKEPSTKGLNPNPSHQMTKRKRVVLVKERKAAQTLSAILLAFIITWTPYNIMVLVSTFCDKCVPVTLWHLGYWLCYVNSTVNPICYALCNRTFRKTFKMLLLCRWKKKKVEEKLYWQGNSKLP
# wild-type C57BL/6J mice [3] = assay: Hypothermia (Tb by telemetry) after ip dosing; assay type: in vivo, mouse; conditions: average from dosing to 60 min, mean±SD
# Description: (§1) Compounds were dosed ip. Tb and activity were measured by telemetry and the averages from dosing to 60 min were calculated. […] Data are for the highest dose used and are mean±SD from 3 to 22 mice/group (usually 5-7). P values are unpaired t-Test vs vehicle-treated controls assayed simultaneously. Vehicle data are mean±SD from all (n=83) vehicle treated mice.
# wild-type C57BL/6J mice [4] = assay: Locomotor activity by telemetry after ip dosing; assay type: in vivo, mouse; conditions: average from dosing to 60 min, mean±SD
# Description: as §1
# sigma receptor σ2 = sigma receptor σ2 (UniProt Q5BJF2); assay: Off-target interaction determined by the PDSP; assay type: binding, human; conditions: read-out: Off-target, receptor (h, unless noted) (Ki, μM): σ2
# adrenergic receptor β3 = adrenergic receptor β3 (Homo sapiens, UniProt P13945); assay: Off-target interaction determined by the PDSP; assay type: binding; conditions: read-out: Off-target, receptor (h, unless noted) (Ki, μM): β3
# Chain of adrenergic receptor β3 (P13945 whole entry): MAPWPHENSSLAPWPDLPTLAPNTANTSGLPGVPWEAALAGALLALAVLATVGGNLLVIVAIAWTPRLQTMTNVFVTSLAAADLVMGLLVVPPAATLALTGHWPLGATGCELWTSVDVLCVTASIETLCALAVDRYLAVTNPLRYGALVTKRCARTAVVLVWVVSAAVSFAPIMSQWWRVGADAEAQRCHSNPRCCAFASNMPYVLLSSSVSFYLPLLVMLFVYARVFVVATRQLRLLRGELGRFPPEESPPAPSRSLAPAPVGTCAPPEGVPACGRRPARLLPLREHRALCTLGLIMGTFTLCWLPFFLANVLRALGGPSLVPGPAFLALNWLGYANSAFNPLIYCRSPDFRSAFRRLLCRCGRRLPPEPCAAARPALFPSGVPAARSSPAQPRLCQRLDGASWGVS
# histamine receptor H3 = histamine receptor H3 (Homo sapiens, UniProt Q9Y5N1); assay: Off-target interaction determined by the PDSP; assay type: binding; conditions: read-out: Off-target, receptor (h, unless noted) (Ki, μM): H3
# Chain of histamine receptor H3 (Q9Y5N1 whole entry): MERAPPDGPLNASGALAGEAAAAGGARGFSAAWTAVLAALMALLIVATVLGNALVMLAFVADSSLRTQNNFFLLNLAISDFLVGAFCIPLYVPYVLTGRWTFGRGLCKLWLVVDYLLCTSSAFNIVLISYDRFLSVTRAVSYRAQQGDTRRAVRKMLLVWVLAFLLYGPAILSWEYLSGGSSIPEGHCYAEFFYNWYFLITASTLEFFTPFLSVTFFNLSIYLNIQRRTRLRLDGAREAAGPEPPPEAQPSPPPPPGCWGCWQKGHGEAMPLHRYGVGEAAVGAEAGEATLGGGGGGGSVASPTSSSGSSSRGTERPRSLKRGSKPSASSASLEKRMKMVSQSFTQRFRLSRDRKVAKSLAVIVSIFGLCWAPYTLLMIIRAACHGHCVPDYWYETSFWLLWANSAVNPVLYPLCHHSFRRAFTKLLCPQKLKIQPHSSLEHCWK
# serotonin receptor 5HT2B = serotonin receptor 5HT2B (Homo sapiens, UniProt P41595); assay: Off-target interaction determined by the PDSP; assay type: binding; conditions: read-out: Off-target, receptor (h, unless noted) (Ki, μM): 5HT2B
# Chain of serotonin receptor 5HT2B (P41595 whole entry): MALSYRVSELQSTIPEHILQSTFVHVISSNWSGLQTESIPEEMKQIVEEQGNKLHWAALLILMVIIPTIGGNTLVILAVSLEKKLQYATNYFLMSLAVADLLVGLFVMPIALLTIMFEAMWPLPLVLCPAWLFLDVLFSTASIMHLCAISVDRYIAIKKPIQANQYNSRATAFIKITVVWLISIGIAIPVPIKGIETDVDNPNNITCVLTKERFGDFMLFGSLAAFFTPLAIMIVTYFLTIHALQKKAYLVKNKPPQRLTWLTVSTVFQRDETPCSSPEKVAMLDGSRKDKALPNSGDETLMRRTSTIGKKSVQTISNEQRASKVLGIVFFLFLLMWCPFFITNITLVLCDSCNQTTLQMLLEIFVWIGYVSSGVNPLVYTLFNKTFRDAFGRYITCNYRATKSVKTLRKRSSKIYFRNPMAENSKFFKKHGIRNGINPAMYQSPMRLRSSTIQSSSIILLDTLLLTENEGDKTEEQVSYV
# [5] = target: kappa (KOR) opioid receptor (Homo sapiens, UniProt P41145); assay: Off-target interaction determined by the PDSP; assay type: binding; conditions: read-out: Off-target, receptor (h, unless noted) (Ki, μM): KOR
# Chain of kappa (KOR) opioid receptor (P41145 whole entry): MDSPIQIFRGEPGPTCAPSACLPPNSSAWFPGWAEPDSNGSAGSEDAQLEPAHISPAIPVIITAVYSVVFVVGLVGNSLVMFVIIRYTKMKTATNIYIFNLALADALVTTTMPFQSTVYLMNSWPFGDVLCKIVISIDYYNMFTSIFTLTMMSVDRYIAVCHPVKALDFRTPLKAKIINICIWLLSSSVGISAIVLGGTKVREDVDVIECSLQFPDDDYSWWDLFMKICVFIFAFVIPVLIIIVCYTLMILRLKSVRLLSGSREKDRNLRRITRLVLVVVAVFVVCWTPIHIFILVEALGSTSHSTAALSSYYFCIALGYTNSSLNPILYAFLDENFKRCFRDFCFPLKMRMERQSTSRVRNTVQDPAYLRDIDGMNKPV
# histamine receptor H2 = histamine receptor H2 (Homo sapiens, UniProt P25021); assay: Off-target interaction determined by the PDSP; assay type: binding; conditions: read-out: Off-target, receptor (h, unless noted) (Ki, μM): H2
# Chain of histamine receptor H2 (P25021 whole entry): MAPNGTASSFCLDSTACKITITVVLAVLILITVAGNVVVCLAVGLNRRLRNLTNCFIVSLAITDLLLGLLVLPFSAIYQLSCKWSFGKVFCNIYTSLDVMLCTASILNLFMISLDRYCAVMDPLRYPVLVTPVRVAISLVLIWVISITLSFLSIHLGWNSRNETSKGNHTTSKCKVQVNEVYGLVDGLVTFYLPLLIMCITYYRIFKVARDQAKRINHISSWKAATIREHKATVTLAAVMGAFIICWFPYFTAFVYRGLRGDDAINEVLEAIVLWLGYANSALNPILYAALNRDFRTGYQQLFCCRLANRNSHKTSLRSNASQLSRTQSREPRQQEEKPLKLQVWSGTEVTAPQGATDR
# muscarinic receptor M3 = muscarinic receptor M3 (Homo sapiens, UniProt P20309); assay: Off-target interaction determined by the PDSP; assay type: binding; conditions: read-out: Off-target, receptor (h, unless noted) (Ki, μM): M3
# sigma receptor σ1 = sigma receptor σ1 (Homo sapiens, UniProt Q99720); assay: Off-target interaction determined by the PDSP; assay type: binding; conditions: read-out: Off-target, receptor (h, unless noted) (Ki, μM): σ1
# Chain of sigma receptor σ1 (Q99720 whole entry): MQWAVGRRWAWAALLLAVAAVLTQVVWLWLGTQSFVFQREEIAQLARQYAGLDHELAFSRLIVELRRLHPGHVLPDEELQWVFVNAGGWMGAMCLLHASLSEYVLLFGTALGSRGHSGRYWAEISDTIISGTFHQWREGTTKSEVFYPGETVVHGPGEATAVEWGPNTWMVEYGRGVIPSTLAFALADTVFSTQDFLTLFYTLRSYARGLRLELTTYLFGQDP
# adrenergic receptor α2A = adrenergic receptor α2A (Homo sapiens, UniProt P08913); assay: Off-target interaction determined by the PDSP; assay type: binding; conditions: read-out: Off-target, receptor (h, unless noted) (Ki, μM): α2A
# Chain of adrenergic receptor α2A (P08913 whole entry): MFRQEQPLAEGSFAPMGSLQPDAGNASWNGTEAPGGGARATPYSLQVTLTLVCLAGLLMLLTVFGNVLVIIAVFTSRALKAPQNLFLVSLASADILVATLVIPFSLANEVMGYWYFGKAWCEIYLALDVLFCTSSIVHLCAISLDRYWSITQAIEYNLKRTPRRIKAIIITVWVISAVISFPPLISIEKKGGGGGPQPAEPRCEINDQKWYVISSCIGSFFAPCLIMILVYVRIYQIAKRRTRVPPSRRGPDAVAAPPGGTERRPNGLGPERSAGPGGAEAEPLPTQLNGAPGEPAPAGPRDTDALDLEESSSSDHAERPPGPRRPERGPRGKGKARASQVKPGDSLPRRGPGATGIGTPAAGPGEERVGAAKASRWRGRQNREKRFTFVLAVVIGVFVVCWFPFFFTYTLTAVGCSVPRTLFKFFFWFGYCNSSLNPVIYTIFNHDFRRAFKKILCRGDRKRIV
SMILES,Ki (hA1AR) [µM],Ki (mA1AR) [µM],inhibition at 10 µM (hA2AAR) [%],inhibition at 10 µM (mA2AAR) [%],inhibition at 10 µM (hA3AR) [%],Ki (mA3AR) [µM],Ki [2] [µM],Ki (serotonin receptor 5HT2C) [µM],Tb (° C.) (wild-type C57BL/6J mice [3]; 10 mg/kg ip) [°C],Activity (counts) (wild-type C57BL/6J mice [4]; 10 mg/kg ip),Ki (sigma receptor σ2) [µM],Ki (hA3AR) [µM],Ki (serotonin receptor 5HT2B) [µM],also measured
"OC[C@@]12C[C@@H]1[C@@H](n1cnc3c(NC(C4CCC4)C4CCC4)nc(Cl)nc31)[C@H](O)[C@@H]2O [Compound 25, (1R,2R,3S,4R,5S)-4-(2-Chloro-6-((dicyclobutylmethyl)amino)-9H-purin-9-yl)-1-(hydroxymethyl)bicyclo[3.1.0]hexane-2,3-diol]",0.00896 ± 0.00102,0.00247,55 ± 5,26,25 ± 2,0.612,2.93,0.238,36.6 ± 0.2,18.4 ± 3.2,,,,Ki [1]: 4.75 µM; Ki (muscarinic receptor M5): 3 µM
"COC(=O)c1ncn([C@H]2[C@H](O)[C@H](O)[C@]3(CO)C[C@H]23)n1 [Compound 39, Methyl 1-((1S,2R,3S,4R,5R)-3,4-dihydroxy-5-(hydroxymethyl)bicyclo[3.1.0]hexan-2-yl)-1H-1,2,4-triazole-3-carboxylate]",,2.99 ± 0.08,14 ± 5,,22 ± 4,,,,,,1.72,,,inhibition at 10 µM (hA1AR): 6 ± 4%; inhibition at 10 µM (mA3AR; read-out: A3AR % inhibition or Ki): 15 ± 2%; Ki (adrenergic receptor β3): 1.42 µM; Ki (histamine receptor H3): 4.52 µM
"O=C(NCCO)[C@@]12C[C@@H]1[C@@H](n1cnc3c(N[C@H]4C[C@H]5CC[C@@H]4C5)nc(Cl)nc31)[C@H](O)[C@@H]2O [Compound 37, (1S,2R,3S,4R,5S)-4-(6-(((1R,2S,4S)-bicyclo[2.2.1]heptan-2-yl)amino)-2-chloro-9H-purin-9-yl)-2,3-dihydroxy-N-(2-hydroxyethyl)bicyclo[3.1.0]hexane-1-carboxamide]",0.0176 ± 0.0053,0.00156,,23,,0.447,,,,,,0.127 ± 0.029,0.718,"Ki (hA2AAR; (h), values without % sign (Ki)): 5.4 µM; Ki [5]: 2.63 µM"
"O[C@H]1[C@H](n2cnc3c(NC(C4CCC4)C4CCC4)nc(Cl)nc32)[C@H]2C[C@@]2(CCl)[C@H]1O [Compound 27, (1S,2R,3S,4R,5S)-4-(2-Chloro-6-((dicyclobutylmethyl)amino)-9H-purin-9-yl)-1-(chloromethyl)bicyclo[3.1.0]hexane-2,3-diol]",0.12 ± 0.023,0.0112,17 ± 24,20,,,2.89,1.75,36.5 ± 0.6,18.9 ± 10.2,0.349,3.82 ± 1.82,,Ki (histamine receptor H2): 2.6 µM
"CCOC(=O)[C@@]12C[C@@H]1[C@@H](n1cnc3c(NC(C4CCC4)C4CCC4)nc(Cl)nc31)[C@H](O)[C@@H]2O [Compound 35, Ethyl (1S,2R,3S,4R,5S)-4-(2-Chloro-6-((dicyclobutylmethyl)amino)-9H-purin-9-yl)-2,3-dihydroxybicyclo[3.1.0]hexane-1-carboxylate]",0.0738 ± 0.0142,,57 ± 12,,,,,0.089,,,2.02,1.16 ± 0.3,0.097,Ki (muscarinic receptor M3): 5.9 µM
"O[C@H]1[C@H](n2cnc3c(NC(C4CCC4)C4CCC4)ncnc32)[C@H]2C[C@@]2(CCl)[C@H]1O [Compound 26, (1S,2R,3S,4R,5S)-1-(Chloromethyl)-4-(6-((dicyclobutylmethyl)amino)-9H-purin-9-yl)bicyclo[3.1.0]hexane-2,3-diol]",0.0327 ± 0.0124,0.00105,38 ± 3,,49 ± 4,0.934,2.02,,,,1.17,,2.01,Ki (sigma receptor σ1): 1.5 µM; Ki (adrenergic receptor α2A): 6.8 µM; Tb (° C.) (wild-type C57BL/6J mice [3]; 3 mg/kg ip): 35.9 ± 0.5 °C; Activity (counts) (wild-type C57BL/6J mice [4]; 3 mg/kg ip): 14.8 ± 1.7 counts
